Results: patent US9796733B2, “Imidazo-pyrazine derivatives useful as soluble guanylate cyclase activators” (Merck Sharp & Dohme Corp., priority 2014, dated 2017)

Target: T1, sGC α1/β1 heterodimer (Homo sapiens, UniProt Q02108+Q02153)
T1 construct: expressed in transfected cells; host or cells: CHO-K1 (clone #7, CHO-K1/sGC)
T1 sequence (Q02108 1-690): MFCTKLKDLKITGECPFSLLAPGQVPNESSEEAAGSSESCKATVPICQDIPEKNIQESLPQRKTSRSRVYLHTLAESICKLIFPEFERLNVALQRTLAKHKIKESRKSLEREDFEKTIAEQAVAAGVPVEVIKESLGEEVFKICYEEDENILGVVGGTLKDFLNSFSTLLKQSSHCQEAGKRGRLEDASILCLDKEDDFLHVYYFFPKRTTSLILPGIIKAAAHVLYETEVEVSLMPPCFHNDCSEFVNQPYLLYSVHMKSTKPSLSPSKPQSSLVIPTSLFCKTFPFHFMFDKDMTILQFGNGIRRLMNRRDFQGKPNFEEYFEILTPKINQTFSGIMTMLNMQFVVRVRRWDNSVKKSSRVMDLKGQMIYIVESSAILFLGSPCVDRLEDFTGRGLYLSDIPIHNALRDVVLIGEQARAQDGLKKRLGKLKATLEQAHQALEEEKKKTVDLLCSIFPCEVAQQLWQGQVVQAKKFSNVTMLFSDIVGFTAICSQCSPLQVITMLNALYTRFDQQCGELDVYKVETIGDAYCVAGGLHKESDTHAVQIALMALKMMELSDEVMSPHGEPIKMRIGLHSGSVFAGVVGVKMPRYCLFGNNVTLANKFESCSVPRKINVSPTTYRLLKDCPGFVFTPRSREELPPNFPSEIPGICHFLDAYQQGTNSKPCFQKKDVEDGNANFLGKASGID
T1 sequence (Q02153 1-619): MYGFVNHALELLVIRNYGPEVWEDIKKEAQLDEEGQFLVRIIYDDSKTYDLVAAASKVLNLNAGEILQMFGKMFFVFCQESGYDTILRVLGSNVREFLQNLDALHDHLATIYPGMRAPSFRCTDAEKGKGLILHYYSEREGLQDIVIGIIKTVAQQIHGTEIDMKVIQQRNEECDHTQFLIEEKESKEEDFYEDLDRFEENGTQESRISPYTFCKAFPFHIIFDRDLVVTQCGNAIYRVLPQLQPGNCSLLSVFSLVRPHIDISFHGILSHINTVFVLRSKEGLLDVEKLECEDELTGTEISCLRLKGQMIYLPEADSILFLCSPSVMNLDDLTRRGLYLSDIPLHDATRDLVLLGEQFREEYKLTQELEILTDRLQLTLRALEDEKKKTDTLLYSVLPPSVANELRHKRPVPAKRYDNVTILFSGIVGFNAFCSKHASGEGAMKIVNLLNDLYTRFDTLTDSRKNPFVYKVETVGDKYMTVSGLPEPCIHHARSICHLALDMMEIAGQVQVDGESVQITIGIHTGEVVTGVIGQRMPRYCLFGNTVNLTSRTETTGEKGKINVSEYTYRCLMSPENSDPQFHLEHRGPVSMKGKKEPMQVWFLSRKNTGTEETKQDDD
Experiment: Cell-based sGC functional assay (CASA assay): cGMP generation in CHO-K1/sGC cells, HTRF detection
Details: for Emax: CHO-K1, percent activation relative to standard Compound A in CHO-K1/sGC cells, read-out: % Act.; for EC50: inflection point (IP) of cGMP generation in CHO-K1/sGC cells, 4P fit, activity expressed as percentage of Compound A
In short: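 Stable CHO-K1/sGC cells in EBSS buffer with 5 mM MgCl2, 0.05% BSA and 0.5 mM IBMX were incubated with compound (2.5% DMSO final) ±1 μM DETA-NO for 1 hr at 37° C. cGMP was measured by HTRF. Activation is expressed as % of reference HDA Compound A maximum, with IP and max fold induction from a 4P fit.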

Emax [%]	EC50 [nM]	% Act. (percent activation relative to standard Compound A in CHO-K1/sGC cells) [%]	SMILES
139	19	–	CC1(c2ccc(F)cc2)C(=O)Nc2nc(-c3cn4ccnc4c(CCc4ccccc4F)n3)nc(N)c21 (centres unmarked) [Example 3A, 4-amino-2-(8-(2-fluorophenethyl)imidazo[1,2-a]pyrazin-6-yl)-5-(4-fluorophenyl)-5-methyl-5H-pyrrolo[2,3-d]pyrimidin-6(7H)-one]
99	862	–	CC1(C)C(=O)Nc2nc(-c3cn4cc(C(F)(F)F)nc4c(Cc4cccc(F)c4)n3)nc(N)c21 [Example 75, 4-amino-2-(8-(3-fluorobenzyl)-2-(trifluoromethyl)imidazo[1,2-a]pyrazin-6-yl)-5,5-dimethyl-5H-pyrrolo[2,3-d]pyrimidin-6(7H)-one]
189	486	–	COc1ccc(C2(C3CC3)C(=O)Nc3nc(-c4cn5ccnc5c(CCC(F)(F)C(F)(F)F)n4)nc(N)c32)nc1 (single isomer, unassigned) [Example 337A, 4-amino-5-cyclopropyl-5-(5-methoxypyridin-2-yl)-2-(8-(3,3,4,4,4-pentafluorobutyl)imidazo[1,2-a]pyrazin-6-yl)-5H-pyrrolo[2,3-d]pyrimidin-6(7H)-one]
79	338	–	CC1(c2ccc(F)cn2)C(=O)Nc2nc(-c3cn4c(N)cnc4c(CCC(F)(F)C(F)(F)F)n3)nc(N)c21 (centres unmarked) [Example 268B, 4-Amino-2-(3-amino-8-(3,3,4,4,4-pentafluorobutyl)imidazo[1,2-a]pyrazin-6-yl)-5-(5-fluoropyridin-2-yl)-5-methyl-5H-pyrrolo[2,3-d]pyrimidin-6(7H)-one]

Second part, the molecule before the results:

SMILES	Emax [%]	EC50 [nM]	% Act. (percent activation relative to standard Compound A in CHO-K1/sGC cells) [%]
CC1(C(=O)NC2CC2)C(=O)Nc2nc(-c3cn4ccnc4c(Cc4ccccc4F)n3)nc(N)c21 (centres unmarked) [Example 35A, 4-amino-N-cyclopropyl-2-(8-(2-fluorobenzyl)imidazo[1,2-a]pyrazin-6-yl)-5-methyl-6-oxo-6,7-dihydro-5H-pyrrolo[2,3-d]pyrimidine-5-carboxamide]	129	16	–
CC1(c2ccc(Cl)cc2)C(=O)Nc2nc(-c3cn4cc(C(F)(F)F)nc4c(Cc4ccccc4F)n3)nc(N)c21 (centres unmarked) [Example 151A, 4-amino-5-(4-chlorophenyl)-2-(8-(2-fluorobenzyl)-2-(trifluoromethyl)imidazo[1,2-a]pyrazin-6-yl)-5-methyl-5H-pyrrolo[2,3-d]pyrimidin-6(7H)-one]	106	19	–
CC1(C(=O)NC2CC2)C(=O)Nc2nc(-c3cn4cc(C(F)(F)F)nc4c(Cc4cccc(F)c4F)n3)nc(N)c21 (centres unmarked) [Example 43A, 4-amino-N-cyclopropyl-2-(8-(2,3-difluorobenzyl)-2-(trifluoromethyl)imidazo[1,2-a]pyrazin-6-yl)-5-methyl-6-oxo-6,7-dihydro-5H-pyrrolo[2,3-d]pyrimidine-5-carboxamide]	86	182	–
CC1(F)CN(c2nc(-c3cn4ccnc4cn3)nc3c2C(C)(c2ccc(Cl)cc2)C(=O)N3)C1 (centres unmarked) [Example 284A, 5-(4-chlorophenyl)-4-(3-fluoro-3-methylazetidin-1-yl)-2-(imidazo[1,2-a]pyrazin-6-yl)-5-methyl-5H-pyrrolo[2,3-d]pyrimidin-6(7H)-one]	120	102	–
CC1(C(=O)NC2CC2)C(=O)Nc2nc(-c3cn4ccnc4c(Cc4cccc(F)c4)n3)nc(N)c21 (single isomer, unassigned) [Example 36A, 4-amino-N-cyclopropyl-2-(8-(3-fluorobenzyl)imidazo[1,2-a]pyrazin-6-yl)-5-methyl-6-oxo-6,7-dihydro-5H-pyrrolo[2,3-d]pyrimidine-5-carboxamide]	–	304	151
CC1(C)C(=O)Nc2nc(-c3cn4c(Cl)cnc4c(CCC(F)(F)C(F)(F)F)n3)nc(N)c21 [Example 257, 4-amino-2-(3-chloro-8-(3,3,4,4,4-pentafluorobutyl)imidazo [1,2-a]pyrazin-6-yl)-5,5-dimethyl-5H-pyrrolo[2,3-d]pyrimidin-6(7H)-one]	146	614	–
